According to patent US11053204B2, “Pyrimidinyloxy benzene derivatives as herbicides” (FMC Corporation, priority 2015, dated 2021):

Tests used:
Type in all cases: in vivo
[1] = test system: ragweed (common ragweed, Ambrosia elatior); assay: Test A preemergence, visual injury rating; details: for Plant response rating, Ragweed: 31 g ai/ha, 0 to 100 scale, 0 no effect, 100 complete control; for Ragweed plant response rating: 125 g ai/ha, 0 to 100 scale (0 no effect, 100 complete control)
Summary of the method: (§1)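 Compounds in non-phytotoxic solvent with surfactant applied as soil spray preemergence, or postemergence to plants 2-10 cm at one- to two-leaf stage, in loam/sand. After approximately 10 days in greenhouse, injury rated visually versus untreated controls, 0 (no effect) to 100 (complete control).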

kochia (Kochia scoparia) [2] = assay: Test A preemergence, visual injury rating; details: for Plant response rating, Kochia: 31 g ai/ha, 0 to 100 scale, 0 no effect, 100 complete control; for Kochia plant response rating: 125 g ai/ha, 0 to 100 scale (0 no effect, 100 complete control)
Summary of the method: as §1

[3] = test system: giant foxtail (Setaria faberii); assay: Test A preemergence, visual injury rating; details: for Plant response rating, Foxtail, Giant: 31 g ai/ha, 0 to 100 scale, 0 no effect, 100 complete control; for Foxtail, Giant plant response rating: 125 g ai/ha, 0 to 100 scale (0 no effect, 100 complete control)
Summary of the method: as §1

[4] = test system: barnyardgrass (Echinochloa crus-galli); assay: Test A preemergence, visual injury rating; details: for Plant response rating, Barnyardgrass: 31 g ai/ha, 0 to 100 scale, 0 no effect, 100 complete control; for Barnyardgrass plant response rating: 125 g ai/ha, 0 to 100 scale (0 no effect, 100 complete control)
Summary of the method: as §1

[5] = test system: Italian ryegrass (Lolium multiflorum); assay: Test A preemergence, visual injury rating; details: for Plant response rating, Ryegrass, Italian: 31 g ai/ha, 0 to 100 scale, 0 no effect, 100 complete control; for Ryegrass, Italian plant response rating: 125 g ai/ha, 0 to 100 scale (0 no effect, 100 complete control)
Summary of the method: as §1

[6] = test system: pigweed (Amaranthus retroflexus); assay: Test A preemergence, visual injury rating; details: for Plant response rating, Pigweed: 31 g ai/ha, 0 to 100 scale, 0 no effect, 100 complete control; for Pigweed plant response rating: 125 g ai/ha, 0 to 100 scale (0 no effect, 100 complete control)
Summary of the method: as §1

[7] = test system: ducksalad (Heteranthera limosa); assay: Test B flooded paddy test, plant response rating; details: 250 g ai/ha; Flood; scale of 0 to 100 where 0 is no effect and 100 is complete control; 13 to 15 days
Summary of the method: (§2)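 Ratings were visual and made relative to untreated controls after 13 to 15 greenhouse days.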

[8] = test system: barnyardgrass (Echinochloa crus-galli); assay: Test B flooded paddy test, plant response rating; details: 250 g ai/ha; Flood; scale of 0 to 100 where 0 is no effect and 100 is complete control; 13 to 15 days
Summary of the method: as §2

rice (Oryza sativa) = assay: Test B flooded paddy test, plant response rating; details: 250 g ai/ha; Flood; scale of 0 to 100 where 0 is no effect and 100 is complete control; 13 to 15 days
Summary of the method: as §2

[9] = test system: sedge, umbrella (small-flower umbrella sedge, Cyperus difformis); assay: Test B flooded paddy test, plant response rating; details: 250 g ai/ha; Flood; scale of 0 to 100 where 0 is no effect and 100 is complete control; 13 to 15 days
Summary of the method: as §2

[10] = test system: ragweed (common ragweed, Ambrosia elatior); assay: Test A postemergence, visual injury rating; details: 0 to 100 scale, 0 is no effect, 100 is complete control, approximately 10 days
Summary of the method: as §1

kochia (Kochia scoparia) [11] = assay: Test A postemergence, visual injury rating; details: 0 to 100 scale, 0 is no effect, 100 is complete control, approximately 10 days
Summary of the method: as §1

[12] = test system: giant foxtail (Setaria faberii); assay: Test A postemergence, visual injury rating; details: 0 is no effect, 100 is complete control; for Foxtail, Giant plant response rating: 31 g ai/ha, 0 to 100 scale, approximately 10 days; for Foxtail, Giant plant response rating (0 to 100 scale): 125 g ai/ha
Summary of the method: as §1

[13] = test system: blackgrass (Alopecurus myosuroides); assay: Test A postemergence, visual injury rating; details: 0 is no effect, 100 is complete control; for Blackgrass plant response rating: 31 g ai/ha, 0 to 100 scale, approximately 10 days; for Blackgrass plant response rating (0 to 100 scale): 125 g ai/ha
Summary of the method: as §1

[14] = test system: barnyardgrass (Echinochloa crus-galli); assay: Test A postemergence, visual injury rating; details: 0 is no effect, 100 is complete control; for Barnyardgrass plant response rating: 31 g ai/ha, 0 to 100 scale, approximately 10 days; for Barnyardgrass plant response rating (0 to 100 scale): 125 g ai/ha
Summary of the method: as §1

[15] = test system: Italian ryegrass (Lolium multiflorum); assay: Test A postemergence, visual injury rating; details: 0 to 100 scale, 0 is no effect, 100 is complete control, approximately 10 days
Summary of the method: as §1

[16] = test system: wheat (Triticum aestivum); assay: Test A postemergence, visual injury rating; details: 0 to 100 scale, 0 is no effect, 100 is complete control, approximately 10 days
Summary of the method: as §1

corn (Zea mays) = assay: Test A postemergence, visual injury rating; details: 0 is no effect, 100 is complete control; for Corn plant response rating: 31 g ai/ha, 0 to 100 scale, approximately 10 days; for Corn plant response rating (0 to 100 scale): 125 g ai/ha
Summary of the method: as §1

[17] = test system: pigweed (Amaranthus retroflexus); assay: Test A postemergence, visual injury rating; details: 0 to 100 scale, 0 is no effect, 100 is complete control, approximately 10 days
Summary of the method: as §1

[18] = test system: galium (catchweed bedstraw, Galium aparine); assay: Test A postemergence, visual injury rating; details: 0 is no effect, 100 is complete control; for Galium plant response rating: 31 g ai/ha, 0 to 100 scale, approximately 10 days; for Galium plant response rating (0 to 100 scale): 125 g ai/ha
Summary of the method: as §1

Structure (SMILES)	Plant response rating, Ragweed [1]	Ragweed plant response rating [1]	Plant response rating, Kochia (kochia (Kochia scoparia) [2])	Kochia plant response rating (kochia (Kochia scoparia) [2])	Plant response rating, Foxtail, Giant [3]	Foxtail, Giant plant response rating [3]	Plant response rating, Barnyardgrass [4]	Barnyardgrass plant response rating [4]	Plant response rating, Ryegrass, Italian [5]	Ryegrass, Italian plant response rating [5]	Plant response rating, Pigweed [6]	Pigweed plant response rating [6]	Plant response rating, Ducksalad [7]	Plant response rating, Barnyardgrass [8]	Plant response rating, Rice (rice (Oryza sativa))	Plant response rating, Sedge, Umbrella [9]	Ragweed plant response rating ([10]; 31 g ai/ha)	Ragweed plant response rating ([10]; 125 g ai/ha)	Kochia plant response rating (kochia (Kochia scoparia) [11]; 31 g ai/ha)	Kochia plant response rating (kochia (Kochia scoparia) [11]; 125 g ai/ha)	also measured
O=C(SCCC(F)(F)F)c1c(Br)cccc1Oc1ncc(Cl)cn1 [Compound 71]	0	0	0	0	40	100	0	10	0	0	0	40	90	0	0	95	0	20	10	50	Foxtail, Giant plant response rating [12]: 10; Foxtail, Giant plant response rating (0 to 100 scale) [12]: 40; Blackgrass plant response rating [13]: 10; Blackgrass plant response rating (0 to 100 scale) [13]: 30; Barnyardgrass plant response rating [14]: 0; Barnyardgrass plant response rating (0 to 100 scale) [14]: 40; Ryegrass, Italian plant response rating ([15]; 31 g ai/ha): 0; Ryegrass, Italian plant response rating ([15]; 125 g ai/ha): 20; Wheat plant response rating ([16]; 31 g ai/ha): 0; Wheat plant response rating ([16]; 125 g ai/ha): 0; Corn plant response rating (corn (Zea mays)): 10; Corn plant response rating (0 to 100 scale) (corn (Zea mays)): 20; Pigweed plant response rating ([17]; 31 g ai/ha): 30; Pigweed plant response rating ([17]; 125 g ai/ha): 70; Galium plant response rating [18]: 30; Galium plant response rating (0 to 100 scale) [18]: 90
FC(F)(F)CCCOCc1c(Br)cccc1Oc1ncc(Cl)cn1 [Compound 74]	0	0	0	100	40	100	10	60	0	20	20	90	100	40	0	100	0	10	20	40	Foxtail, Giant plant response rating [12]: 20; Foxtail, Giant plant response rating (0 to 100 scale) [12]: 70; Blackgrass plant response rating [13]: 10; Blackgrass plant response rating (0 to 100 scale) [13]: 30; Barnyardgrass plant response rating [14]: 10; Barnyardgrass plant response rating (0 to 100 scale) [14]: 40; Ryegrass, Italian plant response rating ([15]; 31 g ai/ha): 0; Ryegrass, Italian plant response rating ([15]; 125 g ai/ha): 20; Wheat plant response rating ([16]; 31 g ai/ha): 0; Wheat plant response rating ([16]; 125 g ai/ha): 10; Corn plant response rating (corn (Zea mays)): 10; Corn plant response rating (0 to 100 scale) (corn (Zea mays)): 20; Pigweed plant response rating ([17]; 31 g ai/ha): 60; Pigweed plant response rating ([17]; 125 g ai/ha): 100; Galium plant response rating [18]: 20; Galium plant response rating (0 to 100 scale) [18]: 80
